PMC12040169 (PLOS Biology, 2025)

Assay: in vitro
Settings: human, hela cells, % viability

Row | SMILES | viability at 28.5 h, 10 µM [%]
1 | COc1ccc(NC(=O)c2c(C)[nH]c(=O)[nH]c2=S)cc1OC [CBK115517] | 90.4
2 | COc1ccc(O)c(C(=O)c2cnn(C(=O)c3ccc(C)cc3)c2)c1 [CBK297546] | 86.3
3 | Cc1ccc(C(=O)COC(=O)CCN2C(=O)C3C4CCC(C4)C3C2=O)cc1[N+](=O)[O-] (centres unmarked) [CBK264096] | 91.5
4 | O=C(O)CC1CCN(c2ccc(C(F)(F)F)cn2)CC1 [CBK286850] | 90.4
5 | COc1cc2c(cc1OC)C(C)N(S(=O)(=O)c1cn(C)cn1)CC2 (centres unmarked) [CBK057314] | 112
6 | COC(=O)CCc1ccc(S(=O)(=O)N2CCCN(Cc3ccc4c(c3)OCO4)CC2)cc1 [CBK063130] | 106
7 | O=S(=O)(NCc1nc(-c2ccccc2)no1)c1ccc(F)cc1 [CBK268198] | 93.3
8 | COc1ccc(C2CC(c3ccc(Cl)cc3)Nc3ncnn32)c(OC)c1 (centres unmarked) [CBK287848] | 98.7
9 | COC(=O)c1c(NC(=O)CC2NCCNC2=O)sc(C)c1C (centres unmarked) [CBK269447] | 92.1
10 | O=C(c1ccc2[nH]c(=O)[nH]c2c1)N1CCC2(CCN(C(=O)c3cc(F)c(F)cc3F)C2)C1 (centres unmarked) [CBK131407] | 95.9
11 | COc1ccc2[nH]c(SCC(=O)Nc3ccc(Br)cc3)nc2c1 [CBK263447] | 91
12 | COc1cc(CN2CCN(Cc3ccccc3F)CC2)cc(OC)c1O [CBK264219] | 95.9
13 | C=CCn1c(Cc2csc(NC(=O)c3ccc([N+](=O)[O-])cc3Cl)n2)n[nH]c1=S [CBK295291] | 76.1
14 | Cc1cc(-c2nc3ncccc3o2)ccc1NC(=S)NC(=O)c1cc2ccccc2o1 [CBK268922] | 83.1
15 | CCN(CC)CC(=O)Nc1sc2c(c1C#N)CCCC2 [CBK261646] | 102
16 | COc1ccc(C(=O)O)cc1NC(=S)NC(=O)c1ccc(-c2ccccc2)cc1 [CBK265064] | 99.5
17 | O=C(Nc1cccc(-c2nc3ncccc3o2)c1)c1ccc(OCc2ccccc2)cc1 [CBK263139] | 102
18 | O=C(Cc1ccc(F)cc1F)N1CCC(Sc2ccc(-c3ccccc3)cc2)CC1 [CBK131950] | 105
19 | CCC(=O)Nc1nc(-c2ccco2)c(-c2ccncc2)s1 [CBK284495] | 101
20 | CCOc1ccc(C(O)Cn2c(=N)n(CCN3CCCCC3)c3ccccc32)cc1 (centres unmarked) [CBK262913C] | 111
21 | CN(C)C(=O)Cn1nc(-c2cc3c(s2)CCCC3)oc1=O [CBK283905] | 98

Row | SMILES | viability at 28.5 h, 10 µM [%]
22 | Cc1nn(-c2ccccc2)c2sc(C(=O)N3CCN(C(=O)c4ccccc4)CC3)cc12 [CBK297554] | 96.1
23 | COc1ccc([C@@]23CC=C(N(Cc4ccccc4)C(=O)Nc4ccc(F)c(F)c4)C[C@@H]2N(C)CC3)cc1OC [CBK050179] | 94.9
24 | CC(C)n1c(COc2ccc(OC(F)(F)F)cc2)n[nH]c1=S [CBK012989] | 92.9
25 | CCOc1ncccc1CNc1ncnc2c1cnn2CCO [CBK305964] | 97
26 | Nc1nc(CSc2nnc(Cc3ccc([N+](=O)[O-])cc3)n2-c2ccccc2)cs1 [CBK267408] | 93.5
27 | CCC(c1nc2ccccc2c(=O)n1-c1cccnc1)N1C(=O)c2ccccc2C1=O (centres unmarked) [CBK268300] | 99.1
28 | N#CCCCN1CCC(Oc2nccnc2OCc2cc(Cl)cc(Cl)c2)CC1 [CBK153634] | 93.9
29 | Cc1ccc(CN(CCCN(C)C)Cc2cnc(C)n2C)o1 [CBK283188] | 95.4
30 | O=C(Nc1ccncc1)c1cc2cc(F)ccc2[nH]1 [CBK107346] | 103
31 | CN(CCCCCC(=O)/C=N/O)Cc1ccccc1 [CBK288499] | 91.7
32 | CN1CCN(c2nc(Nc3ccc(Cl)cc3)nc(Oc3ccccc3)n2)CC1 [CBK004778] | 107
33 | CC(C)(C)OC(=O)N1CCC(C2OCc3cc(C(=O)N4CCNC(=O)C4)ccc3O2)CC1 (centres unmarked) [CBK173277] | 105
34 | COc1ccc(NS(=O)(=O)c2ccc3c(c2)oc(=O)c2cc(S(=O)(=O)Nc4ccc(OC)cc4)ccc23)cc1 [CBK268439] | 104
35 | COc1ccc(C(NC(=O)c2cc3ccccc3[nH]2)C2CC2)cc1 (centres unmarked) [CBK297896] | 97.9
36 | Cc1ccc(-c2csc(NC(=O)c3ccc(S(=O)(=O)N4CCOCC4)cc3)n2)cc1 [CBK094024] | 93.4
37 | CCOc1ccc2nc(NS(=O)(=O)c3ccc4c5c(cccc35)C(=O)N4)sc2c1 [CBK262162] | 100
38 | COc1cc(/C(CS(C)(=O)=O)=N\O)cc(OC)c1OC [CBK022984] | 83.8
39 | C=CCNC(=O)C1CC2CCC1(C)C[C@@]21NC(=O)c2ccccc2N1 (some centres unmarked) [CBK284442] | 86.6
40 | C=CCn1c2cc(C)sc2c2cnn(CC(=O)NC3CC3)c(=O)c21 [CBK284149] | 86.1
41 | CCOC(=O)C1CCN(C(=O)c2cccnc2NCc2ccc3c(c2)OCO3)CC1 [CBK160106] | 118
42 | Oc1ccc(-c2cncc(Nc3cccc(Br)c3)n2)cc1 [CBK107803] | 84.8

Row | SMILES | viability at 28.5 h, 10 µM [%]
43 | c1ccc(CCNc2nccnc2-c2cccs2)nc1 [CBK036776] | 97.7
44 | COc1cccc2cc(C(=O)NCc3ccc(Cl)c(Cl)c3)oc12 [CBK149795] | 85.2
45 | CN1CCC(N(C)C(=O)NCCc2c[nH]c3ccccc23)C1 (centres unmarked) [CBK156012] | 85.4
46 | O=[N+]([O-])c1ccc(CN2CCC(Oc3cncc(OCc4ccc(Cl)c(Cl)c4)n3)C2)cc1 (centres unmarked) [CBK084426] | 97.1
47 | Cc1noc(C)c1CN1CCN(CC(CC(=O)Nc2ccccc2)C(=O)O)CC1 (centres unmarked) [CBK286858] | 83.2
48 | Cc1cc(=O)n(CC(=O)NCCn2ccnc2)c2ccccc12 [CBK281583] | 94.3
49 | O=[N+]([O-])c1ccccc1S(=O)(=O)N1CCN(S(=O)(=O)c2ccc(Cl)cc2)CC1 [CBK264311] | 98.6
50 | Cc1cc2cn([C@H]3C[C@@H](O)[C@@H](CO)O3)c(=O)nc2[nH]1 [CBK201302] | 100
51 | CC(C)CSc1nccnc1N1CCCC1 [CBK103683] | 97.7
52 | O=C(O)/C=C/C(=O)NN1C(=O)c2ccccc2C1=O [CBK286962] | 86.9
53 | Cc1cccc(C)c1NC(=O)Nc1ccc(F)cc1F [CBK300526] | 90.2
54 | Cc1csc2c(C3CCCN(C(=O)c4ccnn4C)C3)nc(C)n12 (centres unmarked) [CBK285215] | 96.9
55 | O=C(NCCCc1nc2ccccc2[nH]1)c1ccccc1 [CBK268429] | 96.9
56 | O=C(NC1CCCCC1)N1CC[C@H](c2nc3ccccc3o2)C1 [CBK289372] | 88.4
57 | Oc1ccc(Cn2c(-c3ccc(O)cc3)nc3ccccc32)cc1 [CBK291187] | 90.3
58 | COc1cc(N2CCCNCC2)ncn1 [CBK085485C] | 91.6
59 | O=C(Nc1cc2cccnc2nc1Cl)c1ccc(C(F)(F)F)cc1[N+](=O)[O-] [CBK091348] | 89.9
60 | CCc1noc(C)c1C(=O)NCc1cccnc1N(C)C1CCCCC1 [CBK306804] | 98.9
61 | Cn1c(=O)c2c(O)cc(=O)n(Cc3ccccc3)c2n(C)c1=O [CBK291245] | 81.5
62 | CN1C(=O)c2ccccc2OCCCCC[C@H]2[C@@H]1CCCN2C(=O)c1cc2c([nH]c1=O)CCC2 [CBK292034] | 114
